Experimental data: PMC11424896, “Overcoming drug resistance of cancer cells by targeting the FGF1/FGFR1 axis with honokiol or FGF ligand trap” (Frontiers in Pharmacology, 2024)

Molecular target: T1, full-length FGFR1c (Homo sapiens, UniProt P11362)
T1 construct: gene FGFR1; full-length FGFR1c, pcDNA3.1, stably transfected in U2OS cells (U2OSR1)
Assay: Western blot of FGFR phosphorylation (pTyr653/[…]) in U2OSR1 cells
Assay type: cell-based
Details: 30 µM honokiol pre-treatment, then 10 ng/mL FGF1 with heparin, 15 min; serum-starved cells

T1 sequence (P11362 22-822): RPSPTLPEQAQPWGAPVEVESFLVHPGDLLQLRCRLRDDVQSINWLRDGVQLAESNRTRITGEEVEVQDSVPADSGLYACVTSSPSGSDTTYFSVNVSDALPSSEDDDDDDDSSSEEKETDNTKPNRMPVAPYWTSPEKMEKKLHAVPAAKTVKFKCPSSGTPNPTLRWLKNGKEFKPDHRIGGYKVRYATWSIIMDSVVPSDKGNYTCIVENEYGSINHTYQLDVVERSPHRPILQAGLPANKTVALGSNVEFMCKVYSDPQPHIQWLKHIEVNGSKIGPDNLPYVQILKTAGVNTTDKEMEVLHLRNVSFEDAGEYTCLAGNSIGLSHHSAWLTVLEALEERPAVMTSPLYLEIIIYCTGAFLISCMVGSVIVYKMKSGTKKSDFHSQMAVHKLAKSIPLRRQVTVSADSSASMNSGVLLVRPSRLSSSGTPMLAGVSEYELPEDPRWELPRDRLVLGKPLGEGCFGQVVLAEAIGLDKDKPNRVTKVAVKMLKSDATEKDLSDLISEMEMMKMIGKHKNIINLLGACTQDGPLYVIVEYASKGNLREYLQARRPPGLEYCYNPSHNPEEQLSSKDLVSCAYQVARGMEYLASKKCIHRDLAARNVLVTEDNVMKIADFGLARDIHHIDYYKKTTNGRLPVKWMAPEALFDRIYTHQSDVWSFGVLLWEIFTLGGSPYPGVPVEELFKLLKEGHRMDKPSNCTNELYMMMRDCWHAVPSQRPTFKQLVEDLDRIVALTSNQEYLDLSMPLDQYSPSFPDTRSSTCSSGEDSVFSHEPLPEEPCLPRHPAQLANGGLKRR

SMILES: C=CCc1ccc(O)c(-c2ccc(O)c(CC=C)c2)c1 [honokiol]
- p-FGFR inhibition at 30 μM: in cells treated with honokiol, FGF1 did not induce activation of either FGFR
